Holding throughout (test): relative viability (nuclei count vs DMSO), 5 days (fraction); higher = more cells survive
Compound in the assay “RAF265 + Palbociclib”: Cn1c(Nc2ccc(C(F)(F)F)cc2)nc2cc(Oc3ccnc(-c4ncc(C(F)(F)F)[nH]4)c3)ccc21 [RAF265] + CC(=O)c1c(C)c2cnc(Nc3ccc(N4CCNCC4)cn3)nc2n(C2CCCC2)c1=O [Palbociclib] (partner 0.5 µM)
The method in brief:
(§1)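 Nuclei were stained with Hoechst during a one-step fixation (final 0.05% Triton X-100, 1% formaldehyde, 1 ug/ml Hoechst) carried out 5 days after dosing, then counted on 4× images. The cells, lung cancer lines in 1536-well plates, had been dosed by pin tool the day after seeding with one drug alone or a fixed anchor-drug dose plus five library-drug doses (not always all listed) in √10 steps. Relative viability is the nuclei count in treated wells divided by that in vehicle wells, and each value is the median of duplicate plates.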

Compound in the assay “IPA-3 + Olaparib”: C1=CC=C2C(=C1)C=CC(=C2SSC3=C(C=CC4=CC=CC=C43)O)O [IPA-3] + O=C(c1cc(Cc2n[nH]c(=O)c3ccccc23)ccc1F)N1CCN(C(=O)C2CC2)CC1 [Olaparib] (partner 8 µM)
Summed up: as §1

Compound in the assay “Doramapimod + Phenformin”: Cc1ccc(-n2nc(C(C)(C)C)cc2NC(=O)Nc2ccc(OCCN3CCOCC3)c3ccccc23)cc1 [Doramapimod] + N=C(N)NC(=N)NCCc1ccccc1 [Phenformin] (partner 250 µM)
The method in brief: as §1

Compound in the assay “RAF265 + Olaparib”: Cn1c(Nc2ccc(C(F)(F)F)cc2)nc2cc(Oc3ccnc(-c4ncc(C(F)(F)F)[nH]4)c3)ccc21 [RAF265] + O=C(c1cc(Cc2n[nH]c(=O)c3ccccc23)ccc1F)N1CCN(C(=O)C2CC2)CC1 [Olaparib] (partner 8 µM)
The method in brief:
as §1

UMC-11: the relative viability came out at 0.309 with RAF265 + Palbociclib (first compound 0.01 µM); 0.336 in the assay with RAF265 + Palbociclib (first compound 0.03162 µM); 0.334 with RAF265 + Palbociclib (first compound 0.1 µM); 0.314 with RAF265 + Palbociclib (first compound 0.3162 µM); 0.32 in the assay with RAF265 + Palbociclib (first compound 1 µM); 1.06 with IPA-3 + Olaparib (first compound 0.2 µM). In addition, the relative viability in the assay with IPA-3 + Olaparib (first compound 0.6325 µM) stood at 0.459; with IPA-3 + Olaparib (first compound 2 µM), 0.338; with IPA-3 + Olaparib (first compound 6.325 µM) it was 0.361; with IPA-3 + Olaparib (first compound 20 µM), 0.384; in the assay with Doramapimod + Phenformin (first compound 0.02 µM), 0.319; with Doramapimod + Phenformin (first compound 0.06325 µM), 0.32. For the same cell line, the relative viability with Doramapimod + Phenformin (first compound 0.2 µM) turned out to be 0.339; with Doramapimod + Phenformin (first compound 0.6325 µM) it was 0.368; with Doramapimod + Phenformin (first compound 2 µM) it was 0.309; in the assay with RAF265 + Olaparib (first compound 0.01 µM) it was 0.408; in the assay with RAF265 + Olaparib (first compound 0.03162 µM), 0.368; in the assay with RAF265 + Olaparib (first compound 0.1 µM), 0.966. Moreover, the relative viability with RAF265 + Olaparib (first compound 0.3162 µM) was 0.31; with RAF265 + Olaparib (first compound 1 µM), 0.329.

The record behind these values is the supplement of paper PMC10307832.
